Reference: patent US12521393B2, “Cytotoxicity targeting chimeras for CCR2-expressing cells” (GLAXOSMITHKLINE INTELLECTUAL PROPERTY DEVELOPMENT LIMITED, priority 2021, dated 2026)

How the values were obtained:
[1] = test system: CCR2 expressing cells (CD11b+Ly6c+Hi) in peripheral blood; test: In vivo depletion assay, flow cytometry of peripheral blood (Example 201); parameters: species or system human CCR2 knock-in mice (C57 background); details: hCCR2 knock-in mice, IV 0.1 mpk compound + 10 mpk anti-cotinine antibody (SEQ ID NO: 13/14), peripheral blood at 48 hr
Outline: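 Mice dosed with compound formulated in saline/DMSO/PBS, with anti-cotinine antibody (rabbit variable region, mouse IgG2a Fc) where required, pre-incubated 30 min at room temperature. Terminal peripheral blood RBC-lysed, Fc-blocked, stained for CD45, CD3, CD11b, Ly6C, human CCR2 and 7AAD; percent depletion of CD11b+Ly6c+Hi cells determined by flow cytometry.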

[2] = test system: endogenous target monocytes in human PBMC; test: PBMC ex vivo monocyte depletion flow cytometry assay (Example 200); format: cell-based; details: with anti-cotinine antibody (SEQ ID NO: 11/12), 18-24 hours, EC50 in molar, read-out: Ex Vivo Depletion Assay pEC50 (converted)
Outline: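 Monocyte depletion is reported as pEC50, averaged or given individually across runs, and read by flow cytometry staining CD45, CD14 and CD4 with a viability dye. Compounds, diluted four-fold over 11 points from 1 mM DMSO stocks, were combined with 30 μg/mL Fc-enhanced anti-cotinine antibody and human PBMC, then incubated 18-24 h at 37° C.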

Structure (SMILES) | % Depletion of CCR2 expressing cells [1] | EC50 [2]
CC(C)N(C)[C@@H]1CC[C@H](N2CC[C@H](Nc3ncnc4ccc(C(F)(F)F)cc34)C2=O)[C@H](NC(=O)[C@H]2CC[C@H](NC(=O)CCCO[C@H]3CC[C@H](OCCNC(=O)[C@H]4CC(=O)N(C)[C@@H]4c4cccnc4)CC3)CC2)C1 [Example 1, (2S,3S)-N-(2-(((1R,4S)-4-(4-(((1R,4R)-4-(((1R,2S,5R)-5-(Isopropyl(methyl)amino)-2-((S)-2-oxo-3-((6-(trifluoromethyl)quinazolin-4-yl)amino)pyrrolidin-1-yl)cyclohexyl)carbamoyl)cyclohexyl)amino)-4-oxobutoxy)cyclohexyl)oxy)ethyl)-1-methyl-5-oxo-2-(pyridin-3-yl)pyrrolidine-3-carboxamide] | 88.5% | 1.58 nM
CC(C)N(C)[C@@H]1CC[C@H](N2CC[C@H](Nc3ncnc4ccc(C(F)(F)F)cc34)C2=O)[C@H](NC(=O)[C@H]2CC[C@@H](NC(=O)CCCO[C@H]3CC[C@H](OCCNC(=O)[C@H]4CC(=O)N(C)[C@@H]4c4cccnc4)CC3)CC2)C1 [Example 5, (2S,3S)-N-(2-(((1R,4S)-4-(4-(((1S,4S)-4-(((1R,2S,5R)-5-(Isopropyl(methyl)amino)-2-((S)-2-oxo-3-((6-(trifluoromethyl)quinazolin-4-yl)amino)pyrrolidin-1-yl)cyclohexyl)carbamoyl)cyclohexyl)amino)-4-oxobutoxy)cyclohexyl)oxy)ethyl)-1-methyl-5-oxo-2-(pyridin-3-yl)pyrrolidine-3-carboxamide] | 91.05% | 0.398 nM
CC(C)N(C)[C@@H]1CC[C@H](N2CC[C@H](Nc3ncnc4ccc(C(F)(F)F)cc34)C2=O)[C@H](NC(=O)CCOCCNC(=O)CCCO[C@H]2CC[C@H](OCCNC(=O)[C@H]3CC(=O)N(C)[C@@H]3c3cccnc3)CC2)C1 [Example 7, (2S,3S)-N-(2-(((1r,4S)-4-(4-((2-(3-(((1R,2S,5R)-5-(Isopropyl(methyl)amino)-2-((S)-2-oxo-3-((6-(trifluoromethyl)quinazolin-4-yl)amino)pyrrolidin-1-yl)cyclohexyl)amino)-3-oxopropoxy)ethyl)amino)-4-oxobutoxy)cyclohexyl)oxy)ethyl)-1-methyl-5-oxo-2-(pyridin-3-yl)pyrrolidine-3-carboxamide] | 47% | 0.501 nM
CN1C(=O)C[C@H](C(=O)NCCO[C@H]2CC[C@H](OCCCC(=O)N[C@H]3CC[C@H](C(=O)N[C@@H]4C[C@H](NC(C)(C)C)CC[C@@H]4N4CC[C@H](Nc5ncnc6ccc(C(F)(F)F)cc56)C4=O)CC3)CC2)[C@H]1c1cccnc1 [Example 10, (2S,3S)-N-(2-(((1R,4S)-4-(4-(((1R,4R)-4-(((1R,2S,5R)-5-(tert-Butylamino)-2-((S)-2-oxo-3-((6-(trifluoromethyl)quinazolin-4-yl)amino)pyrrolidin-1-yl)cyclohexyl)carbamoyl)cyclohexyl)amino)-4-oxobutoxy)cyclohexyl)oxy)ethyl)-1-methyl-5-oxo-2-(pyridin-3-yl)pyrrolidine-3-carboxamide] | 94.9% | 
CC(C)N(C)[C@@H]1CC[C@H](N2CC[C@H](Nc3ncnc4ccc(C(F)(F)F)cc34)C2=O)[C@H](NC(=O)[C@H]2CC[C@@H](NC(=O)CCOCCOCCNC(=O)CCNC(=O)[C@H]3CC(=O)N(C)[C@@H]3c3cccnc3)CC2)C1 [Example 16, (2S,3S)-N-(3-((2-(2-(3-(((1S,4s)-4-(((1R,2S,5R)-5-(Isopropyl(methyl)amino)-2-((S)-2-oxo-3-((6-(trifluoromethyl)quinazolin-4-yl)amino)pyrrolidin-1-yl)cyclohexyl)carbamoyl)cyclohexyl)amino)-3-oxopropoxy)ethoxy)ethyl)amino)-3-oxopropyl)-1-methyl-5-oxo-2-(pyridin-3-yl)pyrrolidine-3-carboxamide] | 74% | 0.316 nM
CC(C)N(C)[C@@H]1CC[C@H](N2CC[C@H](Nc3ncnc4ccc(C(F)(F)F)cc34)C2=O)[C@H](NC(=O)[C@H]2CC[C@@H](NC(=O)CCCC(=O)NCCCOCCCNC(=O)[C@H]3CC(=O)N(C)[C@@H]3c3cccnc3)CC2)C1 [Example 18, N^1-((1S,4s)-4-(((1R,2S,5R)-5-(Isopropyl(methyl)amino)-2-((S)-2-oxo-3-((6-(trifluoromethyl)quinazolin-4-yl)amino)pyrrolidin-1-yl)cyclohexyl)carbamoyl)cyclohexyl)-N^5-(3-(3-((2S,3S)-1-methyl-5-oxo-2-(pyridin-3-yl)pyrrolidine-3-carboxamido)propoxy)propyl)glutaramide] | 88% | 0.501 nM
CC(C)N(C)[C@@H]1CC[C@H](N2CC[C@H](Nc3ncnc4ccc(C(F)(F)F)cc34)C2=O)[C@H](NC(=O)[C@H]2CC[C@H](NC(=O)CCCC(=O)NCCCOCCCNC(=O)[C@H]3CC(=O)N(C)[C@@H]3c3cccnc3)CC2)C1 [Example 19, N1-((1R,4r)-4-(((1R,2S,5R)-5-(Isopropyl(methyl)amino)-2-((S)-2-oxo-3-((6-(trifluoromethyl)quinazolin-4-yl)amino)pyrrolidin-1-yl)cyclohexyl)carbamoyl)cyclohexyl)-N5-(3-(3-((2S,3S)-1-methyl-5-oxo-2-(pyridin-3-yl)pyrrolidine-3-carboxamido)propoxy)propyl)glutaramide] | 59% | 0.794 nM
CN1C(=O)C[C@H](C(=O)NCCOCCOCCOCCC(=O)N[C@H]2CC[C@@H](C(=O)N[C@@H]3C[C@H](NC(C)(C)C)CC[C@@H]3N3CC[C@H](Nc4ncnc5ccc(C(F)(F)F)cc45)C3=O)CC2)[C@H]1c1cccnc1 [Example 23, (2S,3S)-N-(2-(2-(2-(3-(((1S,4s)-4-(((1R,2S,5R)-5-(tert-Butylamino)-2-((S)-2-oxo-3-((6-(trifluoromethyl)quinazolin-4-yl)amino)pyrrolidin-1-yl)cyclohexyl)carbamoyl)cyclohexyl)amino)-3-oxopropoxy)ethoxy)ethoxy)ethyl)-1-methyl-5-oxo-2-(pyridin-3-yl)pyrrolidine-3-carboxamide] | 90.7% | 2 nM
CC(C)N(C)[C@@H]1CC[C@H](N2CC[C@H](Nc3ncnc4ccc(C(F)(F)F)cc34)C2=O)[C@H](NC(=O)[C@H]2C[C@@H](NC(=O)CCOCCOCCOCCNC(=O)[C@H]3CC(=O)N(C)[C@@H]3c3cccnc3)C2)C1 [Example 24, (2S,3S)-N-(2-(2-(2-(3-(((1S,3s)-3-(((1R,2S,5R)-5-(Isopropyl(methyl)amino)-2-((S)-2-oxo-3-((6-(trifluoromethyl)quinazolin-4-yl)amino)pyrrolidin-1-yl)cyclohexyl)carbamoyl)cyclobutyl)amino)-3-oxopropoxy)ethoxy)ethoxy)ethyl)-1-methyl-5-oxo-2-(pyridin-3-yl)pyrrolidine-3-carboxamide] | 89.47% | 1.26 nM
CC(C)N(C)[C@@H]1CC[C@H](N2CC[C@H](Nc3ncnc4ccc(C(F)(F)F)cc34)C2=O)[C@H](NC(=O)[C@H]2CC[C@@H](NC(=O)CCOCCOCCOCCNC(=O)[C@H]3CC(=O)N(C)[C@@H]3c3cccnc3)CC2)C1 [Example 28, (2S,3S)-N-(2-(2-(2-(3-(((1S,4s)-4-(((1R,2S,5R)-5-(Isopropyl(methyl)amino)-2-((S)-2-oxo-3-((6-(trifluoromethyl)quinazolin-4-yl)amino)pyrrolidin-1-yl)cyclohexyl)carbamoyl)cyclohexyl)amino)-3-oxopropoxy)ethoxy)ethoxy)ethyl)-1-methyl-5-oxo-2-(pyridin-3-yl)pyrrolidine-3-carboxamide] | 87.1% | 1 nM
CC(C)N(C)[C@@H]1CC[C@H](N2CC[C@H](Nc3ncnc4ccc(C(F)(F)F)cc34)C2=O)[C@H](NC(=O)[C@H]2CC[C@H](NC(=O)CCOCCOCCOCCNC(=O)[C@H]3CC(=O)N(C)[C@@H]3c3cccnc3)CC2)C1 [Example 30, (2S,3S)-N-(2-(2-(2-(3-(((1R,4r)-4-(((1R,2S,5R)-5-(Isopropyl(methyl)amino)-2-((S)-2-oxo-3-((6-(trifluoromethyl)quinazolin-4-yl)amino)pyrrolidin-1-yl)cyclohexyl)carbamoyl)cyclohexyl)amino)-3-oxopropoxy)ethoxy)ethoxy)ethyl)-1-methyl-5-oxo-2-(pyridin-3-yl)pyrrolidine-3-carboxamide] | 34.88% | 2.51 nM
CC(C)N(C)[C@@H]1CC[C@H](N2CC[C@H](Nc3ncnc4ccc(C(F)(F)F)cc34)C2=O)[C@H](NC(=O)CCOCCOCCOCCOCCOCCNC(=O)[C@H]2CC(=O)N(C)[C@@H]2c2cccnc2)C1 [Example 40, (2S,3S)-N-(18-(((1R,2S,5R)-5-(Isopropyl(methyl)amino)-2-((S)-2-oxo-3-((6-(trifluoromethyl)quinazolin-4-yl)amino)pyrrolidin-1-yl)cyclohexyl)amino)-18-oxo-3,6,9,12,15-pentaoxaoctadecyl)-1-methyl-5-oxo-2-(pyridin-3-yl)pyrrolidine-3-carboxamide] |  | 5.01 nM
CC(C)N(C)[C@@H]1CC[C@H](N2CC[C@H](Nc3ncnc4ccc(C(F)(F)F)cc34)C2=O)[C@H](NC(=O)CCOCCOCCOCCOCCOCCOCCNC(=O)[C@H]2CC(=O)N(C)[C@@H]2c2cccnc2)C1 [Example 41, (2S,3S)-N-(21-(((1R,2S,5R)-5-(isopropyl(methyl)amino)-2-((S)-2-oxo-3-((6-(trifluoromethyl)quinazolin-4-yl)amino)pyrrolidin-1-yl)cyclohexyl)amino)-21-oxo-3,6,9,12,15,18-hexaoxahenicosyl)-1-methyl-5-oxo-2-(pyridin-3-yl)pyrrolidine-3-carboxamide] |  | 2.51 nM
